3 molecules from patent publication US10813890B2, “Pharmaceutical combination” (Gruenenthal GmbH, priority 2010, dated 2020) can be followed below.

The structures appear in SMILES notation. Structures can show the parent of a compound that is named as a salt. Where two headings read alike, the source gives them in different places.

In the test the test system is inflamed rat hind paw. Briefly: Randall-Selitto test in rats (carrageenan-induced acute inflammation, mechanical nociceptive threshold). The note with it: for ED50: Rattus norvegicus, 0.25 h, read-out: ED50 (substance applied alone); for analgesic effect: i.p.; for analgesic effect / timepoint of peak effect: substance applied alone; for timepoint of peak effect: p. appl., timepoint of first measurement.

Turning to `CNC1(c2ccccc2Cl)CCCCC1=O` (racemic) [ketamine hydrochloride, (R,S)-ketamine hydrochloride], the analgesic effect result is “dose-dependent analgesic effect” and the “timepoint of peak effect” value is 15 min. In addition, the ED50 (as a rule, the dose at which the effect has come halfway, by size or by number of responders) (ip) turned out to be 20.2 mg/kg.
On the same counts, the results for `CC12CC3CC(C)(C1)CC(N)(C3)C2` [memantine hydrochloride] are “dose-dependent analgesic effect”, 15 min and 19.1 mg/kg.
Take `CC[C@@H](c1cccc(O)c1)[C@@H](C)CN(C)C` [tapentadol hydrochloride]: the “timepoint of peak effect” value stood at 15 min. The ED50 (iv) is 1.75 mg/kg.
